In the Kinase Knowledgebase extract (Sharma et al. 2016) one finds inhibition and IC50 data, which are given here for 33 compounds.

One assay deals with MAPK14 (BALB/cJ mice). Description: In vivo Inhibition of LPS-induced TNF-alpha Production. The note with it: dose or concentration not given here.
The next assay deals with MAPK14 (human) (UniProt Q16539). Put plainly: In vitro Inhibition of TNF-alpha Production in PBMC Cells.
Sequence of MAPK14 (human) (Q16539 whole entry, looked up): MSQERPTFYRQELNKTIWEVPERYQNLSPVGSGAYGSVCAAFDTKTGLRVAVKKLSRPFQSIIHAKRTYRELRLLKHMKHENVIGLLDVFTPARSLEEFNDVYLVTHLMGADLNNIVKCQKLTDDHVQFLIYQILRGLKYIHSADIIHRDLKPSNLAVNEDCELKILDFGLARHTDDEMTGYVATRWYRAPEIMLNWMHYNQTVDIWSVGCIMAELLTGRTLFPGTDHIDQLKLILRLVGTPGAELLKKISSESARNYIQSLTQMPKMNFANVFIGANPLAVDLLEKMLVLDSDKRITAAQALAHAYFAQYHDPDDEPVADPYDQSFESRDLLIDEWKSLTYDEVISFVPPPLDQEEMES

The term inhibition denotes the relative decrease from the control value, in per cent. Broadly, the IC50 is the concentration at which inhibition is half-maximal. A lower IC50 goes with higher potency. Turning to `Cn1c(Br)c(-c2ccncc2)c(-c2ccc(F)cc2)c1C#N`, in the assay on MAPK14 (BALB/cJ mice), the inhibition worked out at 22%. For the same compound, at MAPK14 (human), the concentration for half-maximal inhibition (IC50) came out at 0.625 µM.

Consider `COC(=O)C1CCn2cc(-c3ccncc3)c(-c3ccc(F)cc3)c2C1=O` (stereo unspecified), for which the inhibition in the assay with MAPK14 (BALB/cJ mice) was -9%. The half-maximal inhibitory concentration (IC50) at MAPK14 (human) worked out at 0.326 µM.

Take `Fc1ccc(-c2c[nH]c(CNCc3ccncc3)c2-c2ccncc2)cc1`: the inhibition in the assay with MAPK14 (BALB/cJ mice) is 47%. The IC50 at MAPK14 (human) came to 0.074 µM.

Consider `CN(C)CCn1cc(-c2ccncc2)c(-c2ccc(F)cc2)c1CO`, for which the inhibition in the assay on MAPK14 (BALB/cJ mice) is 20%. Further, the IC50 on MAPK14 (human) worked out at 0.852 µM.

In the case of `COC(=O)c1c(-c2ccncc2)c(-c2ccc(F)cc2)c(NCCN2CCOCC2)n1C`, the inhibition in the assay on MAPK14 (BALB/cJ mice) came out at 91%. The IC50 against MAPK14 (human) was 10 µM.

Consider `Cn1c(C#N)c(-c2ccc(F)cc2)c(-c2ccncc2)c1N1CCNCC1`, for which the inhibition in the assay with MAPK14 (BALB/cJ mice) was found to be 67%. The compound further returned an IC50 against MAPK14 (human) of 0.018 µM.

As for `CCOC(=O)c1c(-c2ccc(F)cc2)c(-c2ccncc2)c(CCCOCc2ccccc2)n1C`, the inhibition with MAPK14 (BALB/cJ mice) was 51%. This compound had an IC50 on MAPK14 (human) of 0.248 µM.

As to `CCOC(=O)c1c(-c2ccc(F)cc2)c(-c2ccncc2)c(N2CCNCC2)n1C`, the inhibition in the assay with MAPK14 (BALB/cJ mice) was 79%. This compound also displayed an IC50 on MAPK14 (human) of 0.016 µM.

As to `COC(=O)c1c(-c2ccc(F)cc2)c(-c2ccncc2)c(N=C(c2ccccc2)c2ccccc2)n1C`, in the assay with MAPK14 (BALB/cJ mice), the inhibition is -49%. The compound further registered an IC50 against MAPK14 (human) of 0.052 µM.

For the compound `CCOC(=O)c1[nH]cc(-c2ccncc2)c1-c1cc(F)cc(F)c1`, the inhibition in the assay on MAPK14 (BALB/cJ mice) is -14%. This compound returned an IC50 against MAPK14 (human) of 0.114 µM.

Regarding `COC(=O)c1c(-c2ccc(F)cc2)c(-c2ccncc2)cn1C(=O)OC`, the inhibition with MAPK14 (BALB/cJ mice) was -22%. The compound also came in with an IC50 against MAPK14 (human) of 0.023 µM.

Consider `CCOC(=O)c1c(-c2ccc(C)cc2)c(-c2ccncc2)c(Br)n1C`, for which the inhibition with MAPK14 (BALB/cJ mice) is -76%. On MAPK14 (human), the IC50 turned out to be 0.736 µM.

Turning to `OCc1c(-c2ccc(F)cc2)c(-c2ccncc2)cn1CCN1CCOCC1`, the inhibition in the assay with MAPK14 (BALB/cJ mice) was -50%. Also, the IC50 at MAPK14 (human) came to 0.277 µM.

As for `COC(=O)c1c(-c2cccc(F)c2)c(-c2ccncc2)c(N2CCNCC2)n1C`, the inhibition in the assay on MAPK14 (BALB/cJ mice) is 49%. This compound also had a half-maximal inhibitory concentration (IC50) against MAPK14 (human) of 0.069 µM.

`COC(=O)c1c(-c2ccc(F)cc2)c(-c2ccncc2)c(N2CCC(N)C2)n1C` (stereo unspecified): the inhibition in the assay with MAPK14 (BALB/cJ mice) was determined as 25%. Further, the IC50 on MAPK14 (human) turned out to be 0.237 µM.

In the case of `COC(=O)c1c(-c2ccc(F)cc2)c(-c2ccncc2)c(NCCN2CCCCC2)n1C`, the inhibition in the assay with MAPK14 (BALB/cJ mice) is -36%. Moreover, at MAPK14 (human), the IC50 turned out to be 0.092 µM.

Take `CCOC(=O)c1[nH]cc(-c2ccncc2)c1-c1ccc(F)c(F)c1`: the inhibition with MAPK14 (BALB/cJ mice) was -32%. In addition, the IC50 against MAPK14 (human) was 0.56 µM.

As for `CCOC(=O)c1[nH]cc(-c2ccncc2)c1-c1cccc(C(F)(F)F)c1`, the inhibition in the assay on MAPK14 (BALB/cJ mice) was -8%. Besides, the IC50 against MAPK14 (human) is 0.096 µM.

As for `CNC(=O)c1c(-c2ccc(F)cc2)c(-c2ccncc2)c(Br)n1C`, the inhibition in the assay with MAPK14 (BALB/cJ mice) came to 53%. At MAPK14 (human), the IC50 stood at 0.543 µM.

For the compound `COC(=O)c1c(-c2ccc(F)cc2)c(-c2ccncc2)c(NCCN2CCOCC2)n1C`, the inhibition with MAPK14 (BALB/cJ mice) worked out at 44%. Moreover, at MAPK14 (human), the half-maximal inhibitory concentration (IC50) was 0.05 µM.

With `O=C1CCn2c(Br)c(-c3ccncc3)c(-c3ccc(F)cc3)c21`, the inhibition in the assay with MAPK14 (BALB/cJ mice) was determined as 31%. On MAPK14 (human), this compound registered an IC50 of 0.819 µM.

In the case of `COC(=O)c1c(-c2ccncc2)c(-c2ccc(F)cc2)c(C#CCCN2CCOCC2)n1C`, the inhibition in the assay with MAPK14 (BALB/cJ mice) was -4%. Besides, at MAPK14 (human), the IC50 stood at 0.032 µM.

On to `COC(=O)c1c(-c2ccc(F)cc2)c(-c2ccncc2)c(NCCN2CCCC2)n1CCN1CCOCC1`, for which the inhibition in the assay on MAPK14 (BALB/cJ mice) amounted to 23%. The compound also yielded a concentration for half-maximal inhibition (IC50) at MAPK14 (human) of 0.969 µM.

Regarding `COC(=O)CN1CCN(c2c(-c3ccncc3)c(-c3ccc(F)cc3)c(C(=O)OC)n2C)CC1`, the inhibition in the assay on MAPK14 (BALB/cJ mice) was determined as 26%. This compound also displayed an IC50 at MAPK14 (human) of 0.005 µM.

In the case of `COC(=O)c1c(-c2ccc(F)cc2)c(-c2ccncc2)c(C#CCN2CCN(C)CC2)n1C`, the inhibition in the assay with MAPK14 (BALB/cJ mice) was determined as 57%. On MAPK14 (human), this compound yielded a concentration for half-maximal inhibition (IC50) of 0.0077 µM.

For the compound `CCOC(=O)c1c(-c2ccc(F)cc2)c(-c2ccncc2)c(CCCN2CCOCC2)n1C`, the inhibition in the assay on MAPK14 (BALB/cJ mice) came out at 34%. This compound also came in with an IC50 against MAPK14 (human) of 0.756 µM.

Turning to `O=C(NCc1ccccc1)c1[nH]cc(-c2ccc(F)cc2)c1-c1ccncc1`, in the assay with MAPK14 (BALB/cJ mice), the inhibition is -60%. Besides, the IC50 on MAPK14 (human) was 0.014 µM.

Turning to `CCCc1[nH]cc(-c2ccc(F)cc2)c1-c1ccnc(N[C@@H](C)COC)n1`, the inhibition in the assay on MAPK14 (BALB/cJ mice) is -35%. For the same compound, at MAPK14 (human), the concentration for half-maximal inhibition (IC50) was found to be 0.086 µM.

In the case of `CN(C)C(=O)c1c(-c2ccc(F)cc2)c(-c2ccncc2)c(Br)n1C`, the inhibition in the assay with MAPK14 (BALB/cJ mice) was -41%. The IC50 on MAPK14 (human) turned out to be 0.301 µM.

In the case of `COC(=O)c1c(-c2ccc(F)cc2)c(-c2ccncc2)c(NC2CCNCC2)n1C`, the inhibition in the assay with MAPK14 (BALB/cJ mice) came to 7%. On MAPK14 (human), the IC50 is 0.315 µM.

Regarding `Cn1c(Br)c(-c2ccncc2)c(-c2ccc(F)cc2)c1C(=O)OC(C)(C)C`, in the assay on MAPK14 (BALB/cJ mice), the inhibition was -7%. For the same compound, the half-inhibitory concentration (IC50) at MAPK14 (human) worked out at 1.89 µM.

For `COC(=O)c1c(-c2ccncc2)c(-c2ccc(F)cc2)c(Br)n1C`, the inhibition with MAPK14 (BALB/cJ mice) is -6%. Further, on MAPK14 (human), the half-maximal inhibitory concentration (IC50) stood at 0.18 µM.

Regarding `COC(=O)c1c(-c2ccc(F)cc2)c(-c2ccncc2)c(NCc2ccncc2)n1C`, the inhibition in the assay on MAPK14 (BALB/cJ mice) is -22%. On MAPK14 (human), this compound returned an IC50 of 0.145 µM.
